Experimental data: patent US20250034186A1, “ANTIVIRAL COMPOUNDS” (priority 2020, published 2025)

Key:
HRV16 = HRV16 HeLa EC50; type: cell-based, human rhinovirus; conditions: Human rhinovirus sp., HRV16; H1-HeLa cells, 96 h, 33° C.
Experimental: H1-HeLa cells, cultured in complete DMEM medium containing 10% heat-inactivated FBS and 1% Penicillin/Streptomycin, were seeded in 96 well plates at 3000 cells/well one day prior to compound dosing and infection. The antiviral activity of each compound was measured in triplicate. Compounds were added directly to the cell cultures in serial 3-fold dilutions using the HP300 digital dispenser (Hewlett Packard, Palo Alto, CA) immediately prior to infection. The plates were transferred to BSL-2 containment and the appropriate dilution of virus stock, previously determined by titration and prepared in cell culture media, was added to test plates containing cells and serially diluted compounds. Each plate included 6 wells of infected untreated cells and 6 wells of uninfected cells that served as 0% and 100% virus inhibition control, respectively. Following the infection, test plates were incubated for 96 h in a tissue culture incubator set to 33° C./5% CO2. Following incubation, the H1-HeLa cells were removed from incubation and allowed to equilibrate to 25° C. Cell viability was determined by removing 100 μL of culture medium and adding 100 μL of Cell-Titer Glo viability reagent. The mixtures were incubated on a shaker for 10 minutes at 25° C., and the luminescence signal was quantified on an Envision luminescence plate reader.

[1] = Stability assay in human hepatic S9 fractions; type: in vitro ADME; conditions: 37° C., NADPH and UDPGA, read-out: Hum HepS9 t1/2
Experimental: (§1) For S9 stability, the compounds were incubated at 2 μM in cynomolgus monkey or human hepatic S9 fractions for up to 90 min at 37° C. in the presence of NADPH and UDPGA (Phase I and Phase II cofactor, Sigma-Aldrich). At desired time points following compound addition, samples were quenched with 9 volumes of an aqueous solution containing internal standard, 50% acetonitrile and 25% methanol. Sample plates were centrifuged at 3000 g for 30 min, and 10 μL of the resulting solution was analyzed by LC-MS/MS. Data (analyte to internal standard peak area ratio) were plotted on a semi log scale and fitted using an exponential fit. The half-life (T1/2) was determined assuming first order kinetics.

RSV A2 = test: RSV NHBE EC50, RSV A2 antiviral assay; type: cell-based; conditions: human respiratory syncytial virus, 96 h; RSV A2 in NHBE cells, 4 days
Experimental: Normal human bronchial epithelial (NHBE) cells were purchased from Lonza (Walkersville, MD, Cat #CC-2540) and cultured in Bronchial Epithelial Growth Media (BEGM) (Lonza, Walkersville, MD, Cat #CC-3170). The cells were passaged 1-2 times per week to maintain <80% confluency. The NHBE cells were discarded after 6 passages in culture.
To conduct the RSV A2 antiviral assay, NHBE cells were plated in 96-well plates at a density of 7,500 cells per well in BEGM and allowed to attach overnight at 37° C. Following attachment, 100 μL of cell culture media was removed and 3-fold serially diluted compound was added using a Hewlett-Packard D300 Digital Dispenser. The final concentration of DMSO was normalized to 0.05%. Following compound addition, the NHBE cells were infected by the addition of 100 μL of RSV A2 at a titer of 1×10^4.5 tissue culture infectious doses/mL in BEGM and then incubated at 37° C. for 4 days. The NHBE cells were then allowed to equilibrate to 25° C. and cell viability was determined by removing 100 μL of culture medium and adding 100 μL of Cell-Titer Glo viability reagent. The mixtures were incubated for 10 minutes at 25° C., and the luminescence signal was quantified on an Envision luminescence plate reader.

RSV strain A2 = test: RSV HEp-2 EC50, infectious cytopathic cell protection assay; type: cell-based; conditions: human respiratory syncytial virus, 96 h; RSV A2 in HEp-2 cells, 4 days, Cell TiterGlo
Experimental: Antiviral activity against RSV is determined using an infectious cytopathic cell protection assay in HEp-2 cells. In this assay, compounds inhibiting viral infection and/or replication produce a cytoprotective effect against the virus-induced cell killing that can be quantified using a cell viability reagent. The techniques used here are novel adaptations of methods described in published literature (Chapman et al., Antimicrob Agents Chemother. 2007, 51(9):3346-53.).
HEp-2 cells are obtained from ATCC (Manassas, VI) and maintained in MEM media supplemented with 10% fetal bovine serum and penicillin/streptomycin. Cells are passaged twice a week and kept at subconfluent stage. Commercial stock of RSV strain A2 (Advanced Biotechnologies, Columbia, MD) is titered before compound testing to determine the appropriate dilution of the virus stock that generates desirable cytopathic effect in HEp-2 cells.
For antiviral tests, HEp-2 cells are grown in large cell culture flasks to near confluency but not fully so. The compounds to be tested are prediluted in DMSO in 384-well compound dilution plates, either in an 8 or 40 sample per plate standardized dose response format. 3-fold serial dilution increments of each test compound are prepared in the plates and test samples are transferred via acoustic transfer apparatus (Echo, Labcyte) at 100 nL per well into cell culture assay 384-well plates. Each compound dilution is transferred in single or quadruplicate samples into dry assay plates, which are stored until assay is ready to go. The positive and negative controls are laid out in opposite on ends of the plate in vertical blocks (1 column).
Subsequently, an infectious mixture is prepared using an appropriate dilution of virus stock previously determined by titration with cells at a density of 50,000/mL and 20 μL/well is added to test plates w/compounds via automation (uFlow, Biotek). Each plate includes negative and positive controls (16 replicates each) to create 0% and 100% virus inhibition standards, respectively. Following the infection with RSV, testing plates are incubated for 4 days in a 37° C. cell culture incubator. After the incubation, a cell viability reagent, Cell TiterGlo (Promega, Madison, WI) is added to the assay plates, which are incubated briefly, and a luminescent readout is measured (Envision, Perkin Elmer) in all the assay plates. The RSV-induced cytopathic effect, percentage inhibition, is determined from the levels of remaining cell viability. […] Various potent anti-RSV tool compounds are used as positive controls for antiviral activity.

[2] = Stability assay in cynomolgus monkey hepatic S9 fractions; type: in vitro ADME; conditions: 37° C., NADPH and UDPGA, read-out: Cyno HepS9 t1/2
Experimental: as §1

in vitro = in vitro ADME; conditions: plasma, 37° C., up to 4 h
Experimental: For plasma stability, the compounds were incubated at 2 μM in cynomolgus monkey or human plasma for up to 4 h at 37° C. At desired time points, an aliquot from the incubation was quenched by addition of 9 volumes of 100% acetonitrile supplemented with internal standard. Following the last collection, samples were centrifuged at 3000 g for 30 min and supernatants were transferred to a new plate containing an equal volume of water for analysis by liquid chromatography coupled to triple quadrupole mass spectrometry (LC-MS/MS). Data (analyte to internal standard peak area ratio) were plotted on a semi log scale and fitted using an exponential fit. The half-life (T1/2) was determined assuming first order kinetics.

Question: For CCC(CC)COC(=O)[C@H](C)N[P@@](=O)(OC[C@@]1(C#N)O[C@@H](c2ccc3c(N)ncnn23)[C@H](O)[C@@H]1O)Oc1ccccc1 (single isomer, unassigned) [Compound 7], which EC50 (HRV16) is on record?
Answer: 183 nM

Question: And the half-life at 2 μM [1]?
Answer: 6 min

Question: What about the EC50 (RSV A2) of the same compound?
Answer: 91 nM

Question: And the EC50 (RSV strain A2)?
Answer: 124 nM

Question: And the half-life at 2 μM [2]?
Answer: 2 min

Question: And the half-life at 2 μM (in vitro; cynomolgus monkey, read-out: Cyno Plasma t1/2)?
Answer: 2.97 h

Question: And the half-life at 2 μM (in vitro; human, read-out: Hum Plasma t1/2)?
Answer: 3.88 h
